Test results taken from the NIST ThermoML archive (doi:10.1021/acs.jced.6b00772).
± gives the expanded uncertainty stated by the source.

Conditions: Fluid (supercritical or subcritical phases), isochoric method

For `O=C(C(F)(F)C(F)(F)F)C(F)(C(F)(F)F)C(F)(F)F` [dodecafluoro-2-methylpentan-3-one], the mass density (333.47 K, 4628.4 kPa) was 1526.2 ± 6.1 kg/m3, the mass density (343.46 K, 3695.1 kPa) was 1489 ± 6 kg/m3 and the mass density (353.46 K, 597.1 kPa) was 1425.9 ± 5.7 kg/m3. It also gave a mass density (353.46 K, 7818.2 kPa) of 1488.3 ± 6 kg/m3, a mass density (363.45 K, 4019 kPa) of 1425.2 ± 5.7 kg/m3 and a mass density (373.46 K, 849.3 kPa) of 1348 ± 5.9 kg/m3. The mass density (373.46 K, 7450.4 kPa) was 1424.5 ± 5.7 kg/m3, the mass density (383.46 K, 3567.3 kPa) was 1347.4 ± 5.4 kg/m3 and the mass density (393.47 K, 6308 kPa) was 1346.8 ± 5.4 kg/m3. It also gave a mass density (393.5 K, 1730.8 kPa) of 1273.5 ± 5.1 kg/m3, a mass density (403.46 K, 831.5 kPa) of 107.8 ± 39 kg/m3 and a mass density (403.46 K, 9056.2 kPa) of 1346.1 ± 5.4 kg/m3. For the same compound, the mass density (403.48 K, 1044.1 kPa) was 1195.8 ± 39 kg/m3, the mass density (403.5 K, 3917.8 kPa) was 1272.9 ± 5.1 kg/m3 and the mass density (413.46 K, 1666.3 kPa) was 1157.5 ± 6.3 kg/m3. For the same compound, the mass density (413.48 K, 873.1 kPa) was 107.8 ± 11 kg/m3, the mass density (413.48 K, 2784 kPa) was 1195.2 ± 4.8 kg/m3 and the mass density (413.5 K, 6126.2 kPa) was 1272.3 ± 5.1 kg/m3. It also gave a mass density (423.47 K, 3219 kPa) of 1156.9 ± 4.7 kg/m3, a mass density (423.49 K, 913.6 kPa) of 107.7 ± 5.4 kg/m3 and a mass density (423.49 K, 4554.9 kPa) of 1194.6 ± 4.8 kg/m3. For the same compound, the mass density (423.49 K, 8348.4 kPa) was 1271.7 ± 5.1 kg/m3, the mass density (433.46 K, 1423 kPa) was 209.1 ± 7.5 kg/m3 and the mass density (433.47 K, 4799.8 kPa) was 1156.4 ± 4.7 kg/m3. The mass density (433.48 K, 2354.6 kPa) was 1044.1 ± 4.3 kg/m3, the mass density (433.49 K, 953.3 kPa) was 107.7 ± 1.8 kg/m3 and the mass density (433.49 K, 1785.7 kPa) was 980.1 ± 7.9 kg/m3. The mass density (433.49 K, 6349 kPa) was 1194.1 ± 4.8 kg/m3, the mass density (443.47 K, 1703.9 kPa) was 270.5 ± 5.5 kg/m3 and the mass density (443.48 K, 1517.2 kPa) was 209 ± 3.3 kg/m3. The mass density (443.48 K, 1862.8 kPa) was 384.5 ± 7 kg/m3, the mass density (443.48 K, 1909.2 kPa) was 553.6 ± 11 kg/m3 and the mass density (443.48 K, 2368.4 kPa) was 932 ± 4.1 kg/m3. For the same compound, the mass density (443.48 K, 6401.8 kPa) was 1155.8 ± 4.6 kg/m3, the mass density (443.49 K, 991.3 kPa) was 107.6 ± 1.6 kg/m3 and the mass density (443.49 K, 1905.5 kPa) was 490.7 ± 5.6 kg/m3. For the same compound, the mass density (443.49 K, 1950.5 kPa) was 733.6 ± 23 kg/m3, the mass density (443.5 K, 1925.1 kPa) was 626.4 ± 43 kg/m3 and the mass density (443.5 K, 1983.4 kPa) was 797.9 ± 9.4 kg/m3. For the same compound, the mass density (443.5 K, 2050.5 kPa) was 844.7 ± 6.5 kg/m3, the mass density (443.5 K, 2089.1 kPa) was 861.9 ± 5.6 kg/m3 and the mass density (443.5 K, 2696.6 kPa) was 979.6 ± 4 kg/m3. For the same compound, the mass density (443.5 K, 3478.7 kPa) was 1043.6 ± 4.2 kg/m3, the mass density (443.5 K, 8156.2 kPa) was 1193.5 ± 4.8 kg/m3 and the mass density (453.48 K, 3187.2 kPa) was 931.6 ± 3.9 kg/m3. It also gave a mass density (453.49 K, 1028.2 kPa) of 107.6 ± 1.5 kg/m3, a mass density (453.49 K, 2074 kPa) of 384.3 ± 5.6 kg/m3 and a mass density (453.49 K, 2237.3 kPa) of 553.3 ± 8.8 kg/m3. For the same compound, the mass density (453.49 K, 2415.6 kPa) was 733.2 ± 6.5 kg/m3, the mass density (453.49 K, 8016.6 kPa) was 1155.3 ± 4.6 kg/m3 and the mass density (453.5 K, 1608.6 kPa) was 208.9 ± 2.7 kg/m3. It also gave a mass density (453.5 K, 1836 kPa) of 270.4 ± 3.2 kg/m3, a mass density (453.5 K, 2302.1 kPa) of 626.1 ± 8.5 kg/m3 and a mass density (453.5 K, 2679.9 kPa) of 844.3 ± 4 kg/m3. It also gave a mass density (453.51 K, 3642.6 kPa) of 979.1 ± 4 kg/m3, a mass density (453.51 K, 4628.3 kPa) of 1043.2 ± 4.2 kg/m3 and a mass density (453.52 K, 2543.8 kPa) of 797.5 ± 4.8 kg/m3. It also gave a mass density (453.52 K, 2753.3 kPa) of 861.5 ± 5.8 kg/m3, a mass density (453.52 K, 9972.1 kPa) of 1192.9 ± 4.8 kg/m3 and a mass density (453.53 K, 2192.7 kPa) of 490.4 ± 8.1 kg/m3. It also gave a mass density (463.48 K, 1697.6 kPa) of 208.8 ± 1.8 kg/m3, a mass density (463.49 K, 1963.3 kPa) of 270.2 ± 2.7 kg/m3 and a mass density (463.49 K, 5794.1 kPa) of 1042.7 ± 4.2 kg/m3. For the same compound, the mass density (463.5 K, 1065.3 kPa) was 107.5 ± 1.4 kg/m3, the mass density (463.5 K, 2277.3 kPa) was 384.1 ± 3.9 kg/m3 and the mass density (463.5 K, 2561.8 kPa) was 553 ± 5.7 kg/m3. For the same compound, the mass density (463.5 K, 2685.7 kPa) was 625.8 ± 4.9 kg/m3, the mass density (463.5 K, 2908.5 kPa) was 732.9 ± 4.4 kg/m3 and the mass density (463.5 K, 4032.8 kPa) was 931.2 ± 3.8 kg/m3. The mass density (463.5 K, 9636.7 kPa) was 1154.7 ± 4.6 kg/m3, the mass density (463.51 K, 2470.7 kPa) was 490.2 ± 5.4 kg/m3 and the mass density (463.51 K, 3127.9 kPa) was 797.1 ± 3.9 kg/m3. It also gave a mass density (463.51 K, 3336.1 kPa) of 843.9 ± 3.6 kg/m3, a mass density (463.52 K, 3442 kPa) of 861.1 ± 3.5 kg/m3 and a mass density (463.52 K, 4610 kPa) of 978.7 ± 4 kg/m3. The mass density (473.49 K, 2087.5 kPa) was 270.1 ± 2.4 kg/m3 and the mass density (473.49 K, 3412 kPa) was 732.5 ± 3.7 kg/m3.
